Source: patent publication US10287530B2, “Surfactants based on monounsaturated fatty alcohol derivatives” (priority 2013, dated 2019)
Read-outs that look alike come from different tables or passages of the source.

Assay type: physicochemical
Conditions: for Emulsion stability, mL separation, 1 h / Emulsion stability, mL separation, 24 h: 342 ppm water; for Rating: overall, versus control
Experimental: Surfactant candidates for water soluble herbicide applications are examined as a replacement for the anionic, nonionic, or anionic/nonionic blend portion and compared to a known industry adjuvant standard for use in paraquat, a water soluble herbicide concentrate formulation. A standard dilution test is conducted whereby the concentrates are diluted in water to determine if solubility is complete.
A known industry paraquat adjuvant (2.8 g) is added and vigorously mixed for 30 s. Deionized water (8.07 g) is added, and mixing resumes for 30 s. […] The cylinder is stoppered and inverted ten times. Solubility is recorded as complete or incomplete. Cylinders are allowed to stand and the amount (in mL) and type of separation are recorded after 30 min., 1 h, 2 h, and 24 h. Results of the solubility testing appear in Table 4 below.
An eight to ten mole alkyl phenol ethoxylate surfactant (0.7 g) is added and vigorously mixed for 30 s. Test sample (0.7 g) is added and mixing resumes for 30 s. Deionized water (4.03 g) is added, and mixing resumes for 30 s.
Test sample (0.7 g) is added and vigorously mixed for 30 s. Sodium linear alkylbenzene sulfonate (“NaLAS,” 0.7 g) is added and mixing resumes for 30 s. Deionized water (4.03 g) is added, and mixing resumes for 30 s.
Test sample (1.4 g) is added and vigorously mixed for 30 s. Deionized water (4.03 g) is added, and mixing resumes for 30 s.

[1] = Adjuvant (anionic/nonionic) test sample

Row | Substance | Emulsion stability, mL separation, 1 h [1] | Emulsion stability, mL separation, 24 h [1] | Emulsion stability, mL separation, 1 h (Anionic test sample) | Emulsion stability, mL separation, 24 h (Anionic test sample) | Emulsion stability, mL separation, 1 h (Nonionic test sample) | Emulsion stability, mL separation, 24 h (Nonionic test sample) | Rating
1 | 1-Undecanol, 1EO Ether Sulfate, Sodium Salt [Sat. C11 alcohol 1EO Na sulfate] | 0 mL | 0.2 mL | 0 mL | 0 mL | 0.2 mL | 0.5 mL | good
2 | Undecylenic Alcohol, 1EO Ether Sulfate, Sodium Salt [Unsat. C11 alcohol 1EO Na sulfate] | 0 mL | 0.5 mL | 0 mL | 0 mL | 0.2 mL | 0.25 mL | good
